ChEMBL document CHEMBL4627253, “Relationship among structure, cytotoxicity, and Michael acceptor reactivity of quinocidin” (Bioorg Med Chem, 2020)

Legend:
HEK293 = test: Cytotoxicity against HEK293 cells assessed as cell growth incubated for 48 hrs by MTT assay; format: cell-based; details: Homo sapiens, HEK293, 48 h
HeLa S3 [1] = test: Cytotoxicity against human HeLaS3 cells assessed as cell growth incubated for 48 hrs by MTT assay; format: functional, cell-based; details: HeLa S3, 48 h
HeLa S3 [2] = test: Cytotoxicity against human HeLaS3 cells assessed as reduction in cell viability; format: functional, cell-based

CCCC/C=C(\C)c1c(C)cc(C)c2[n+]1CC(C)C=C2 (stereo not drawn)
IC50 (HEK293): 1.7 µM
IC50 (HeLa S3 [1]): 0.64 µM

CCCC/C=C(\C)c1c(C)cc(C)c2[n+]1CCC=C2
IC50 (HeLa S3 [1]): 0.68 µM

CCCC/C=C(\C)c1nc(/C=C\C(C)C)c(C)cc1C
IC50 (HeLa S3 [1]): > 30 µM

CCCCCCc1c(C)cc(C)c2[n+]1CC(C)C=C2 (stereo not drawn)
IC50 (HeLa S3 [1]): 0.47 µM

CCCCCCCCCCCC/C=C/c1c(C)cc(C)c2[n+]1CC(C)C=C2 (stereo not drawn)
IC50 (HeLa S3 [1]): 0.038 µM

C1=Cc2cccc[n+]2CC1
IC50 (HeLa S3 [2]): > 30 µM

CCCCCCCCCC/C=C/c1c(C)cc(C)c2[n+]1CC(C)C=C2 (stereo not drawn)
IC50 (HeLa S3 [1]): 0.052 µM

CCCC/C=C(\C)c1c(C)cc(C)c2[n+]1CC(C)CC2 (stereo not drawn)
IC50 (HeLa S3 [1]): 0.36 µM

CCCC/C=C(\C)c1c(C)cc(C)c[n+]1CCCC
IC50 (HeLa S3 [1]): 0.72 µM

CCCC/C=C/c1c(C)cc(C)c2[n+]1CC(C)C=C2 (stereo not drawn)
IC50 (HeLa S3 [1]): 0.37 µM

CNC(=O)CCCCCc1c(C)cc(C)c2[n+]1CC(C)C=C2 (stereo not drawn)
IC50 (HEK293): > 30 µM
IC50 (HeLa S3 [1]): > 30 µM

CC/C=C/c1c(C)cc(C)c2[n+]1CC(C)C=C2 (stereo not drawn)
IC50 (HeLa S3 [1]): 2 µM

CCCCCC/C=C/c1c(C)cc(C)c2[n+]1CC(C)C=C2 (stereo not drawn)
IC50 (HeLa S3 [1]): 0.17 µM

CCCCCCCCCCCCCC/C=C/c1c(C)cc(C)c2[n+]1CC(C)C=C2 (stereo not drawn)
IC50 (HeLa S3 [1]): 0.058 µM

CCCC/C=C/c1c(C)cc(C)c2[n+]1CC(C)CC2 (stereo not drawn)
IC50 (HeLa S3 [1]): 0.58 µM

CCCCCCCC/C=C/c1c(C)cc(C)c2[n+]1CC(C)C=C2 (stereo not drawn)
IC50 (HeLa S3 [1]): 0.051 µM
